The values below come from PubChem BioAssay (NCI).

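Protocol summary: plate cells (96-well), add compound at 5 concentrations, incubate 48 h, interpolate endpoints linearly. Definition used: TGI = concentration required for complete inhibition of growth.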 A value given as a limit tells only on which side of the number the result lay.

The test system of one assay is HCC-2998 colon. Briefly: NCI tumour cell line growth inhibition, 48 h.
For `O=C(Cc1ccccc1)NNc1nc(NNC(=O)c2ccncc2)nc(Nc2ccc([N+](=O)[O-])cc2)n1`, the TGI is above 10 µM.
The same measure, in the same setting: in the case of `CC(=O)CCCCC(=O)Nc1ccc(CC(NC(=O)OC(C)(C)C)C(=O)NCC(=O)OCc2ccccc2)cc1` (centres undefined) it was 38 µM.
For the molecule `C=CCOc1ccc(/C(N=Nc2ccc(Cl)cc2)=N/NC(=O)c2ccccc2)cc1OC`, the TGI is above 100 µM.
Still for that read-out and setting: in the case of `N#CC12C(=O)N3C(=NC(c4ccccc4)NC3c3ccccc3)C1(C#N)C(c1ccccc1)NC1=C2CCC1` (centres undefined) it was above 100 µM; in that of `O=C(/C=C/c1ccccc1)CCN1CCN(CCC(=O)/C=C/c2ccccc2)CC1`, 30.4 µM; in that of `C[n+]1c2ccccc2c(C(=O)Nc2ccc(S(=O)(=O)Nc3ccnn3-c3ccccc3)cc2)c2ccccc21`, above 100 µM.
`N=c1oc2c(Cl)cc(Cl)cc2cc1C(=O)Nc1cccc2ccccc12`: the TGI is above 59.6 µM.

The test system of another assay is HT29 colon. Briefly: NCI tumour cell line growth inhibition, 48 h.
Regarding `S=c1sc2c(s1)SCCCCSCCCCSc1sc(=S)sc1SCCCCSCCCCS2`, the TGI was above 100 µM.
On the same count and under the same terms, in the case of `O=C1c2c(ccc3c2CCCC3)CC12Cc1ccc3c(c1C2=O)CCCC3` it was above 100 µM; in that of `CCOC(=O)N/N=C(/OCC)c1ccccc1`, above 100 µM; in that of `COc1cccc(-c2c(C#N)c(N)nc3c2CCS(=O)(=O)c2ccc(C)cc2-3)c1`, above 100 µM.
Same read-out and setting: in the case of `COC(=O)C(CC12CC3CC(CC(C3)C1)C2)NC(=O)C(N)CC(=O)O` (centres undefined) it was above 100 µM; in that of `O=C1C(Cl)=C(OCCCCl)C(=O)c2c(O)ccc(O)c21`, 5 µM; in that of `CCN(CC)CCCNc1nc(=O)[nH]c(C)c1C(=O)Nc1cccc2cc3ccccc3cc12`, above 100 µM.
On to `COC12OC3(C4OC41)C(C(=O)O[C@H]3CO[Si](C)(C)C(C)(C)C)C2C(=O)Oc1ccccc1` (some centres undefined), for which the TGI was above 100 µM.
The same measure, in the same setting: in the case of `c1ccc([P+](Cc2ccc(C[P+](c3ccccc3)(c3ccccc3)c3ccccc3)cc2)(c2ccccc2)c2ccccc2)cc1` it was above 100 µM; in that of `O=C(Cc1ccccc1)NNc1nc(NNC(=O)c2ccncc2)nc(Nc2ccc([N+](=O)[O-])cc2)n1`, above 10 µM; in that of `CC(=O)CCCCC(=O)Nc1ccc(CC(NC(=O)OC(C)(C)C)C(=O)NCC(=O)OCc2ccccc2)cc1` (centres undefined), 36.7 µM.
On to `C=CCOc1ccc(/C(N=Nc2ccc(Cl)cc2)=N/NC(=O)c2ccccc2)cc1OC`, for which the TGI was above 100 µM.
As for `N#CC12C(=O)N3C(=NC(c4ccccc4)NC3c3ccccc3)C1(C#N)C(c1ccccc1)NC1=C2CCC1` (centres undefined), the TGI was above 100 µM.
The same measure, in the same setting: in the case of `O=C(/C=C/c1ccccc1)CCN1CCN(CCC(=O)/C=C/c2ccccc2)CC1` it was 30.4 µM; in that of `C[n+]1c2ccccc2c(C(=O)Nc2ccc(S(=O)(=O)Nc3ccnn3-c3ccccc3)cc2)c2ccccc21`, above 100 µM; in that of `N=c1oc2c(Cl)cc(Cl)cc2cc1C(=O)Nc1cccc2ccccc12`, above 100 µM.

For a further assay, the system named is IGROV1 ovarian. The experiment in a line: NCI tumour cell line growth inhibition, 48 h.
Molecule `S=c1sc2c(s1)SCCCCSCCCCSc1sc(=S)sc1SCCCCSCCCCS2` had a TGI above 100 µM.
The same measure, in the same setting: in the case of `O=C1c2c(ccc3c2CCCC3)CC12Cc1ccc3c(c1C2=O)CCCC3` it was above 100 µM; in that of `CCOC(=O)N/N=C(/OCC)c1ccccc1`, above 100 µM.
Molecule `COc1cccc(-c2c(C#N)c(N)nc3c2CCS(=O)(=O)c2ccc(C)cc2-3)c1` gave a TGI above 100 µM.
On the same count and under the same terms, in the case of `COC(=O)C(CC12CC3CC(CC(C3)C1)C2)NC(=O)C(N)CC(=O)O` (centres undefined) it was above 100 µM; in that of `O=C1C(Cl)=C(OCCCCl)C(=O)c2c(O)ccc(O)c21`, 13.1 µM; in that of `CCN(CC)CCCNc1nc(=O)[nH]c(C)c1C(=O)Nc1cccc2cc3ccccc3cc12`, above 100 µM.
In turn, `COC12OC3(C4OC41)C(C(=O)O[C@H]3CO[Si](C)(C)C(C)(C)C)C2C(=O)Oc1ccccc1` (some centres undefined) came in with a TGI above 100 µM.
For the molecule `c1ccc([P+](Cc2ccc(C[P+](c3ccccc3)(c3ccccc3)c3ccccc3)cc2)(c2ccccc2)c2ccccc2)cc1`, the TGI is above 100 µM.
Still for that read-out and setting: in the case of `O=C(Cc1ccccc1)NNc1nc(NNC(=O)c2ccncc2)nc(Nc2ccc([N+](=O)[O-])cc2)n1` it was above 10 µM; in that of `CC(=O)CCCCC(=O)Nc1ccc(CC(NC(=O)OC(C)(C)C)C(=O)NCC(=O)OCc2ccccc2)cc1` (centres undefined), above 100 µM; in that of `C=CCOc1ccc(/C(N=Nc2ccc(Cl)cc2)=N/NC(=O)c2ccccc2)cc1OC`, above 100 µM.
The same measure, in the same setting: in the case of `N#CC12C(=O)N3C(=NC(c4ccccc4)NC3c3ccccc3)C1(C#N)C(c1ccccc1)NC1=C2CCC1` (centres undefined) it was above 100 µM.
On the same count and under the same terms, in the case of `O=C(/C=C/c1ccccc1)CCN1CCN(CCC(=O)/C=C/c2ccccc2)CC1` it was 33.1 µM.
The molecule `C[n+]1c2ccccc2c(C(=O)Nc2ccc(S(=O)(=O)Nc3ccnn3-c3ccccc3)cc2)c2ccccc21` displayed a TGI above 100 µM.
Still for that read-out and setting: in the case of `N=c1oc2c(Cl)cc(Cl)cc2cc1C(=O)Nc1cccc2ccccc12` it was 40.6 µM.

In another assay the test system is KM12 colon. The experiment in a line: NCI tumour cell line growth inhibition, 48 h.
`S=c1sc2c(s1)SCCCCSCCCCSc1sc(=S)sc1SCCCCSCCCCS2` registered a TGI above 100 µM.
On the same count and under the same terms, in the case of `CCOC(=O)N/N=C(/OCC)c1ccccc1` it was above 100 µM; in that of `COc1cccc(-c2c(C#N)c(N)nc3c2CCS(=O)(=O)c2ccc(C)cc2-3)c1`, above 100 µM; in that of `COC(=O)C(CC12CC3CC(CC(C3)C1)C2)NC(=O)C(N)CC(=O)O` (centres undefined), above 100 µM.
On the same count and under the same terms, in the case of `O=C1C(Cl)=C(OCCCCl)C(=O)c2c(O)ccc(O)c21` it was 29.1 µM; in that of `CCN(CC)CCCNc1nc(=O)[nH]c(C)c1C(=O)Nc1cccc2cc3ccccc3cc12`, above 100 µM; in that of `COC12OC3(C4OC41)C(C(=O)O[C@H]3CO[Si](C)(C)C(C)(C)C)C2C(=O)Oc1ccccc1` (some centres undefined), above 100 µM.
Same read-out and setting: in the case of `c1ccc([P+](Cc2ccc(C[P+](c3ccccc3)(c3ccccc3)c3ccccc3)cc2)(c2ccccc2)c2ccccc2)cc1` it was above 100 µM; in that of `O=C(Cc1ccccc1)NNc1nc(NNC(=O)c2ccncc2)nc(Nc2ccc([N+](=O)[O-])cc2)n1`, above 10 µM.
`CC(=O)CCCCC(=O)Nc1ccc(CC(NC(=O)OC(C)(C)C)C(=O)NCC(=O)OCc2ccccc2)cc1` (centres undefined) came in with a TGI of 52.1 µM.
Same read-out and setting: in the case of `C=CCOc1ccc(/C(N=Nc2ccc(Cl)cc2)=N/NC(=O)c2ccccc2)cc1OC` it was above 100 µM; in that of `N#CC12C(=O)N3C(=NC(c4ccccc4)NC3c3ccccc3)C1(C#N)C(c1ccccc1)NC1=C2CCC1` (centres undefined), above 100 µM.
Still for that read-out and setting: in the case of `O=C(/C=C/c1ccccc1)CCN1CCN(CCC(=O)/C=C/c2ccccc2)CC1` it was 17 µM; in that of `C[n+]1c2ccccc2c(C(=O)Nc2ccc(S(=O)(=O)Nc3ccnn3-c3ccccc3)cc2)c2ccccc21`, above 100 µM.
On the same count and under the same terms, in the case of `N=c1oc2c(Cl)cc(Cl)cc2cc1C(=O)Nc1cccc2ccccc12` it was above 100 µM.

The next assay relates to NCI-H226 lung. Briefly: NCI tumour cell line growth inhibition, 48 h.
Molecule `S=c1sc2c(s1)SCCCCSCCCCSc1sc(=S)sc1SCCCCSCCCCS2` showed a TGI above 100 µM.
Same read-out and setting: in the case of `CCOC(=O)N/N=C(/OCC)c1ccccc1` it was above 100 µM.
The same measure, in the same setting: in the case of `COc1cccc(-c2c(C#N)c(N)nc3c2CCS(=O)(=O)c2ccc(C)cc2-3)c1` it was above 100 µM; in that of `O=C1C(Cl)=C(OCCCCl)C(=O)c2c(O)ccc(O)c21`, 30.8 µM; in that of `CCN(CC)CCCNc1nc(=O)[nH]c(C)c1C(=O)Nc1cccc2cc3ccccc3cc12`, above 100 µM.
Still for that read-out and setting: in the case of `COC12OC3(C4OC41)C(C(=O)O[C@H]3CO[Si](C)(C)C(C)(C)C)C2C(=O)Oc1ccccc1` (some centres undefined) it was above 100 µM; in that of `c1ccc([P+](Cc2ccc(C[P+](c3ccccc3)(c3ccccc3)c3ccccc3)cc2)(c2ccccc2)c2ccccc2)cc1`, above 100 µM.
`CC(=O)CCCCC(=O)Nc1ccc(CC(NC(=O)OC(C)(C)C)C(=O)NCC(=O)OCc2ccccc2)cc1` (centres undefined) had a TGI of 94 µM.
For the molecule `C=CCOc1ccc(/C(N=Nc2ccc(Cl)cc2)=N/NC(=O)c2ccccc2)cc1OC`, the TGI is above 100 µM.
`N#CC12C(=O)N3C(=NC(c4ccccc4)NC3c3ccccc3)C1(C#N)C(c1ccccc1)NC1=C2CCC1` (centres undefined) showed a TGI above 100 µM.
`O=C(/C=C/c1ccccc1)CCN1CCN(CCC(=O)/C=C/c2ccccc2)CC1` registered a TGI of 64.4 µM.
Turning to `C[n+]1c2ccccc2c(C(=O)Nc2ccc(S(=O)(=O)Nc3ccnn3-c3ccccc3)cc2)c2ccccc21`, the TGI was above 100 µM.
The same measure, in the same setting: in the case of `N=c1oc2c(Cl)cc(Cl)cc2cc1C(=O)Nc1cccc2ccccc12` it was 66.2 µM.

For the next assay, the system named is OVCAR-3 ovarian. Briefly: NCI tumour cell line growth inhibition, 48 h.
The molecule `S=c1sc2c(s1)SCCCCSCCCCSc1sc(=S)sc1SCCCCSCCCCS2` had a TGI above 100 µM.
Still for that read-out and setting: in the case of `O=C1c2c(ccc3c2CCCC3)CC12Cc1ccc3c(c1C2=O)CCCC3` it was above 100 µM.
